These results are taken from patent publication EP1779900A1, “Cosmetic or dermatological composition for prevention of light-induced aging” (Apotheker Walter Bouhon GmbH, priority 2005, dated 2007).

The subject of this assay is interstitiellen Kollagenase 1 (Matrixmetalloproteinase-1, MMP1). Kind of assay: Inhibition of UV-A-induced MMP1 mRNA expression in human dermal fibroblasts (real-time PCR, in vitro). It is filed as cell-based. The note with it: 20 J/cm^2 UV-A, versus control. From the text:
Es wird die Hemmung der UV-A-induzierten Genexpression am Beispiel der interstitiellen Kollagenase 1 (Matrixmetalloproteinase-1, MMP1) in humanen dermalen Fibroblasten untersucht. Die UV-A-induzierte Expression von MMP1 mRNS wird mittels Echtzeit PCR (Polymerase-Kettenreaktion) aus Zellen, die 24 Stunden nach der Bestrahlung mit 20 J/cm^2 geerntet worden sind, im Vergleich zu unbehandelten zeitgleichen Kontrollen bestimmt.
Da Serum Vitamin-A enthält, werden die verwendeten Zellkulturen für 24 Stunden serum-depriviert. Zur Kontrolle wird die Genexpression an unbehandelten Zellen ohne und mit UV-A-Bestrahlung ermittelt. In einer Konzentrationsreihe von 0,1 bis 30 µM an zugesetztem Retinol wird jeweils die Genexpression der unbestrahlten und der mit UV-A bestrahlten Zellkulturen bestimmt.
Wiederum wird eine Kontrollmessung der Genexpression an unbehandelten Zellkulturen mit und ohne UV-A-Bestrahlung durchgeführt. Den Zellkulturen wird in einer Konzentrationsreihe zwischen 5 und 100µM Generol® R, ein käuflich erwerbbares Produkt der Cognis France SA zugefügt. Generol® R ist eine Mischung aus verschiedenen Phytosterolen und wird aus Raps gewonnen. Generol® R besteht zu 40 bis 60% aus Sitosterol, 25 bis 40% Campesterol, 7 bis 18% Brassicasterol und einem geringem Anteil an Stigmasterol. Zum Erreichen der beschriebenen Konzentrationsreihe wurde Generol® R entsprechend verdünnt. […]
For orientation: In qPCR the cycle at which signal appears reflects the starting amount.

With `CC1=C(/C=C/C(C)=C/C=C/C(C)=C/CO)C(C)(C)CCC1` [Vitamin-A, Retinol], where the note is “Vitamin-A 10-25 µM (series 0,1-30 µM Retinol), serum-deprived 24 h, cells harvested 24 h after irradiation”, the “Hemmung der MMP1-Expression” value is recorded as no more than 82%.
With `Cc1c(C)c2c(c(C)c1OC(=O)CCC(=O)O)CCC(C)(CCCC(C)CCCC(C)CCCC(C)C)O2` (centres unmarked) [Vitamin-E-Sukzinat], the “Hemmung der MMP1 mRNS-Expression” value (Vitamin-E-Sukzinat 10-75 µM, 24 h after irradiation) is recorded as no more than 75%.
